Laboratory results taken from patent US7420001B2 (Wyeth, priority 2003, dated 2008).
pIC50: −log10 of the molar value. Read-outs that look alike come from different tables or passages of the source.

Key:
MMP-2 = biological target: T1, MMP-2 (Homo sapiens, UniProt P08253); test: In-vitro fluorescence assay of MMP-2 activity; type: biochemical
T1 construct: purchased Oncogene Research Products (Calbiochem) PF023
T1 sequence (P08253 110-660): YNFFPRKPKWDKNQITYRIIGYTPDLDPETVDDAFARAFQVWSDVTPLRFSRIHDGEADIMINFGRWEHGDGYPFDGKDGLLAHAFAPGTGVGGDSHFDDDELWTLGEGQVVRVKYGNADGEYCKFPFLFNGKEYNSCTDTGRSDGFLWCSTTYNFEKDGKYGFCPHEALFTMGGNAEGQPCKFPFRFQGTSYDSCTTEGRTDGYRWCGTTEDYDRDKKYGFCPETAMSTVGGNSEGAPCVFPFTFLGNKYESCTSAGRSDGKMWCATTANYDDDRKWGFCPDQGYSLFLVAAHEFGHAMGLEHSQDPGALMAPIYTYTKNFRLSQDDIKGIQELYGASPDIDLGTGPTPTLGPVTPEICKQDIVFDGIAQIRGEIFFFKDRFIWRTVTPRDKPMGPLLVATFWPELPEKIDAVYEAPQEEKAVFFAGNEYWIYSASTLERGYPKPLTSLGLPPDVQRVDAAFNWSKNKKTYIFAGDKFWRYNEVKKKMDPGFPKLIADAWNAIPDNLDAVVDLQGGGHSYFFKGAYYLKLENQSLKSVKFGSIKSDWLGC

MMP-13 = biological target: T2, MMP-13 (Homo sapiens, UniProt P45452); test: In-vitro fluorescence assay of MMP-13 activity; type: biochemical
T2 construct: made in house

MMP-14 = biological target: T3, MMP-14 (Homo sapiens, UniProt P50281); test: In-vitro fluorescence assay of MMP-14 activity; type: biochemical
T3 construct: 20 kDa; purchased Chemicon International, Inc. CC 1041

Aggrecanase-1 = biological target: T4, Aggrecanase-1 (Homo sapiens, UniProt O75173); test: Aggrecanase-1 FRET assay; type: biochemical; settings: for pIC50: rAgg1, WAAG-3R substrate, read-out: AGG-1 IC50
T4 sequence (O75173 213-837): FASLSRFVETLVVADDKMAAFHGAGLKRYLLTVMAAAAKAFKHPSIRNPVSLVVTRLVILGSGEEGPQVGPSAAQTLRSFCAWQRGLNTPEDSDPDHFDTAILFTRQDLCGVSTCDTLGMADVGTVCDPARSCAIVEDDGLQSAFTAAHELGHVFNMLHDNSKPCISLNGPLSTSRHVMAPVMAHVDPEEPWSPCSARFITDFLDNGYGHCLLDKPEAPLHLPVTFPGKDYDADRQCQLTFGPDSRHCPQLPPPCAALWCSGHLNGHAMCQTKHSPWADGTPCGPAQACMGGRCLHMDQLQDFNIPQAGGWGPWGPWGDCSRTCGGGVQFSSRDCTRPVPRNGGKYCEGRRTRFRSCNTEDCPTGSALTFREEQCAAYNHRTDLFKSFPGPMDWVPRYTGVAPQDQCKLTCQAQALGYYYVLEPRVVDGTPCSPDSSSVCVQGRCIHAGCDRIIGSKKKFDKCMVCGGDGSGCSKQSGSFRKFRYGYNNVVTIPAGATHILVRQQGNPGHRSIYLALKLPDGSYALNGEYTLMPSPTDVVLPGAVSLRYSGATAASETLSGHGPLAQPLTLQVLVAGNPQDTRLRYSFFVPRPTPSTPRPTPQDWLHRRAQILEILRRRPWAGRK
Description: h. Aggrecanase-1 FRET Assay:
The following protocol was used: • Fluorimeter was started and temperature set to 30° C., about 30 min before setting up the assay. The following reagents are used: • Buffer: 50 mM HEPES, pH 7.5, 100 mM NaCl, 5 mM CaCl2, 0.1% CHAPS, 5% glycerol. • rAgg1: 5 μg/ml (final concentration in the assay): • Substrate: WAAG-3R (MWT=1645.8, Anaspec, stored at 4° C.). Make a stock at 2 mg/ml in 100% DMSO. Measure the absorbance at 354 nm (ε=18172 M^−1 cm^−1) to determine the exact concentration. Dilute to 62.5 μM in buffer. Store unused 100% DMSO stock at −80° C. Final concentration of substrate in the assay is 25 μM. […] Make up inhibitors at 10× starting concentration in 100% DMSO. Perform serial dilutions (in duplicate) across the nunc plate in 100% DMSO; • Dilution plates: Nunc, polypropylene low binding (Nalgene) • Assay plate: Fluoronunc (Nalgene) • Fluorimeter: GeminiXS (Molecular Devices).; • The assay is performed as follows: The plates are set up so that the final column (12) is used for controls. Total reaction volume is 100 μl. Each compound is assayed in duplicate, so 4 compounds are screened per plate. • 1) Add buffer to the entire 96-well plate (30 ρl/well). • 2) Dilute rAgg1 to 25 μg/ml buffer just prior to addition on the plate. Add 20 μl/well to all wells. Mix 6 times. • 3) Add 10 μl/well of 10× inhibitors from the working plate, except column 12. Mix 6 times. […] Mix 6 times.
The reaction is monitored for 30-40 min at 30° C. λex: 340 nm and λ em: 420 nm). The fluorescence is linear during this time and the slope of the line (Vmax/sec) represents the initial reaction rate, ν. The maximal rate of cleavage of substrate is determined in the absence of inhibitor. The percent inhibition of activity in the presence of inhibitor is calculated as follows:
[formula] The IC50 was obtained by fitting the initial rate, ν, or % inhibition at each concentration of inhibitor to the following equation in Excel. y=(a−d)/(1+C/IC50)^n)+d This model describes a sigmoidal curve with an adjustable baseline, […]. y is the % inhibition or initial rate of reaction, C is the concentration of inhibitor under test. a is the limiting response as C approaches zero. […] The sign of n is positive when the response increases with increasing dose and is negative when the response decreases with increasing dose (inhibition).

MMP-1 = biological target: T5, MMP-1 (Homo sapiens, UniProt P03956)
T5 sequence (P03956 100-269 limits assumed): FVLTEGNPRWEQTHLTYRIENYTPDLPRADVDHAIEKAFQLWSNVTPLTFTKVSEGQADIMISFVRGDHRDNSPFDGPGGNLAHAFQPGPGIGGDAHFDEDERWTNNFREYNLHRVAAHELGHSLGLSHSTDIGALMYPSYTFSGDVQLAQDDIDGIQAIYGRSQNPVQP
Description: A continuous assay was used in which the substrate is a synthetic peptide containing a fluorescent group (7-methoxycoumarin; Mca) which is quenched by energy transfer to a 2,4-dinitrophenyl group. […] The substrate used was Mca-PQGL-(3-[2,4-dinitrophenyl]-L-2,3-diaminopropionyl)-AR-OH (denoted as Wammp-5, custom synthesized by AnaSpec, Inc.). The assay buffer consisted of 50 mM Hepes (pH 7.4), 100 mM NaCl, 5 mM CaCl2, and 0.005% Brij-35. Each well of black polystyrene 96-well plates contained a 200 μL reaction mixture consisting of assay buffer, purified MMP (final concentration of 25 ng/ml, prepared by diluting with the assay buffer), and varied concentrations of inhibitor (prepared by serially diluting a given inhibitor in DMSO in 96-well polypropylene plate). […] The enzymatic reactions were initiated by adding the substrate to a final concentration of 20 μM, and mixing 10 times with a pipette. The final DMSO concentration in the assay was 6.0%.
Plots of the inhibitor concentration vs. the percent inhibition were fit to the following equation: y=(a−d)/[1+(x/c)^b]+d, a general sigmoidal curve with Hill slope, a to d. x is the inhibitor concentration under test. y is the percent inhibition. a is the limiting response as x approaches zero. As x increases without bound, y tends toward its limit d. c is the inflection point (IC50) for the curve. That is, y is halfway between the lower and upper asymptotes when x=c. b is the slope factor or Hill coefficient.

MMP-12 = biological target: T6, MMP-12 (Homo sapiens, UniProt P39900); test: In vitro fluorescence assay of MMP-12 activity; type: biochemical; settings: recombinant human MMP-12
T6 construct: made in house
Description: A continuous, assay was used in which the substrate is a synthetic peptide containing a fluorescent group (7-methoxycoumarin; Mca) which is quenched by energy transfer to a 2,4-dinitrophenyl group. […] The concentration of the substrate stock was spectrophotometrically determined using the extinction coefficient at 410 nm of 7500 M^−1cm^−1. The assay buffer (pH 7.4) consisted of 50 mM Hepes, 100 mM NaCl, 5 mM CaCl2, and 0.005% Brij-35. […] The plates were then incubated at room temperature for 30 minutes. The enzymatic reactions were initiated by adding substrate to a final concentration of 20 μM and they were mixed by pipetting up and down. The final DMSO concentration in the assay was 10% and the final, total assay volume was 200 μl.

MMP-9 = biological target: T7, MMP-9 (Homo sapiens, UniProt P14780); test: MMP-9 activity assay; type: biochemical; settings: recombinant human MMP-9
T7 construct: Active, recombinant human MMP-9 (83 kDa) was purchased from Calbiochem (catalog #PF024); purchased Calbiochem PF024
Description: A continuous assay was used in which the substrate is a synthetic peptide containing a fluorescent group (7-methoxycoumarin; Mca) that is quenched by energy transfer to a 2,4-dinitrophenyl group. […] The concentration of the substrate stock was spectrophotometrically determined using the extinction coefficient at 410 nm of 7500 M^−1cm^−1. The assay buffer (pH 7.4) consisted of 50 mM Hepes, 100 mM NaCl, 5 mM CaCl2, and 0.005% Brij-35. Each well of black polystyrene 96-well plates contained a reaction consisting of assay buffer, purified MMP (final concentration of 1.0 nM, prepared by dilution with assay buffer), and varied concentrations of inhibitor (prepared by serial dilution in DMSO in 96-well polypropylene plates). The plates were then incubated at room temperature for 30 minutes. […] The final DMSO concentration in the assay was 10% and the final, total assay volume was 200 μl. […] Plots of the inhibitor concentration vs. the initial cleavage rate were fit to the following equation in order to determine IC50 values: y=Vmax*(1−(x^n/(K^n+x^n))), whereby x=inhibitor concentration, y=initial rate, Vmax=initial rate in the absence of inhibitor, n=slope factor, and K=IC50 for the inhibition curve.
Active, recombinant human MMP-9 (83 kDa) was purchased from Calbiochem (catalog #PF024).

[1] = recombinant human MMP-2, read-out: MMP-2 IC50
[2] = recombinant human catalytic domain of MMP-13, read-out: MMP-13 IC50
[3] = recombinant human catalytic domain of MMP-14

T6 sequence (P39900 106-280 limits assumed): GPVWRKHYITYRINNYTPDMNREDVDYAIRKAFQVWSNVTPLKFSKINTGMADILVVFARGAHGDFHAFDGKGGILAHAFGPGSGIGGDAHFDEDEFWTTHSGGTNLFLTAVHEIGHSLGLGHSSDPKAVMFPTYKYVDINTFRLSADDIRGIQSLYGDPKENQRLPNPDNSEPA
T7 sequence (P14780 107-707 limits assumed): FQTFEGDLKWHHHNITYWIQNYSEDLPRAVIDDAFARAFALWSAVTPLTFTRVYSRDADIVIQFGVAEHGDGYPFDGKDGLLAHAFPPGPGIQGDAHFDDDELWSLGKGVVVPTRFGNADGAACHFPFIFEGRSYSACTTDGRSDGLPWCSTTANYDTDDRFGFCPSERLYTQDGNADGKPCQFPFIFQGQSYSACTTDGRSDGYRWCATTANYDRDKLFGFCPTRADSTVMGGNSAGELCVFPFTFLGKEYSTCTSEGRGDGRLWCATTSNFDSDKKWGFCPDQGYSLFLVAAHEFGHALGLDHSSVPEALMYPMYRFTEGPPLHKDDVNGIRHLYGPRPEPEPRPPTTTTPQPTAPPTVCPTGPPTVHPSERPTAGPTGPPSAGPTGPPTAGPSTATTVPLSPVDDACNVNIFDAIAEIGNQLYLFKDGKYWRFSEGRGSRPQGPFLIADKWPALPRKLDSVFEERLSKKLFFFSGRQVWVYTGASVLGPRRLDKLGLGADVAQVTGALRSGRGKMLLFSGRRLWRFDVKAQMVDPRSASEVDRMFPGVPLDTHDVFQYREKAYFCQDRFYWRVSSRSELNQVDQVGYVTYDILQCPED

Compound | pIC50 (MMP-2; [1]) | pIC50 (MMP-13; [2]) | pIC50 (Aggrecanase-1) | pIC50 (MMP-14; [3]) | further results
CC(C)[C@@H](NS(=O)(=O)c1ccc(-c2ccc(OCc3nc4ccccc4s3)cc2)cc1)C(=O)O [Example 137, D-2-[4′-(Benzothiazol-2-ylmethoxy)-biphenyl-4-sulfonylamino]-3-methyl-butyric acid] | 7.62 | 8.34 | 5.60 | – | inhibition at […] (MMP-14; read-out: MMP-14 % inhibition at a concentration, at 1.6 uM): 49%
CC(C)[C@@H](NS(=O)(=O)c1ccc(-c2ccc(OC(=O)c3ccco3)cc2)cc1)C(=O)O [Example 144, N-{[4′-(2-Furoyloxy)-1,1′-biphenyl-4-yl]sulfonyl}-D-valine] | – | – | 4.94 | – | –
CC(C)[C@@H](NS(=O)(=O)c1ccc(-c2ccc(CS(=O)(=O)c3cc4ccccc4o3)cc2)cc1)C(=O)O [Example 164, D-2-[4′-(Benzofuran-2-sulfonylmethyl)-biphenyl-4-sulfonylamino]-3-methyl-butyric acid] | 8.25 | 8.96 | 4.90 | 5.84 | pIC50 (MMP-1): 3.30
CC(C)[C@@H](NS(=O)(=O)c1ccc(-c2ccc(NC(=O)c3cccs3)cc2)cc1)C(=O)O [Example 173, (R)-3-Methyl-2-{4′-[(thiophene-2-carbonyl)-amino]-biphenyl-4-sulfonylamino}-butyric acid] | – | 6.94 | 4.60 | – | –
Cc1cc(-c2ccc(S(=O)(=O)N[C@@H](C(=O)O)C(C)C)cc2)cc(C)c1OC(=O)c1cc2ccccc2o1 [Example 133, D-Benzofuran-2-carboxylic acid 4′-(1-carboxy-2-methyl-propylsulfamoyl)-3,5-dimethyl-biphenyl-4-yl ester] | 7.19 | 8.28 | 6.10 | 4.92 | pIC50 (MMP-1): 4.00
Cc1cc(-c2ccc(S(=O)(=O)N[C@@H](C(=O)O)C(C)C)cc2)cc(C)c1OC(=O)c1oc2ccccc2c1C [Example 132, D-3-Methyl-benzofuran-2-carboxylic acid 4′-(1-carboxy-2-methyl-propylsulfamoyl)-3,5-dimethyl-biphenyl-4-yl ester] | 6.46 | 7.85 | 5.66 | 4.00 | –
Cc1c(C(=O)Oc2ccc(-c3ccc(S(=O)(=O)N[C@@H](C(=O)O)C(C)C)cc3)cc2)oc2ccccc12 [Example 134, D-3-Methyl-benzofuran-2-carboxylic acid 4′-(1-carboxy-2-methyl-propylsulfamoyl)-biphenyl-4-yl ester] | 7.77 | 8.92 | 6.95 | 5.20 | –
CC(C)[C@@H](NS(=O)(=O)c1ccc(-c2ccc(N(C)C(=O)c3cc4ccccc4o3)cc2)cc1)C(=O)O [Example 75, D-2-{4′-[(Benzofuran-2-carbonyl)-methyl-amino]-biphenyl-4-sulfonylamino}-3-methyl-butyric acid] | – | – | 4.38 | – | –
CC(C)[C@@H](NS(=O)(=O)c1ccc(-c2ccc(C[S+]([O-])c3cc4ccccc4o3)cc2)cc1)C(=O)O (stereo partly drawn) [Example 165, D-2-[4′-(Benzofuran-2-sulfinylmethyl)-biphenyl-4-sulfonylamino]-3-methyl-butyric acid] | 8.25 | 8.92 | 4.70 | 5.67 | pIC50 (MMP-12): 8.34
CC(C)[C@@H](NS(=O)(=O)c1ccc(-c2ccc(OC(=O)c3ccoc3)cc2)cc1)C(=O)O [Example 145, N-{[4′-(3-Furoyloxy)-1,1′-biphenyl-4-yl]sulfonyl}-D-valine] | – | – | 5.07 | – | –
COc1c(Br)ccc2oc(COc3ccc(-c4ccc(S(=O)(=O)N[C@H](C(=O)O)C(C)C)cc4)cc3)c(C)c12 [Example 148, N-({4′-[(5-Bromo-4-methoxy-3-methyl-1-benzofuran-2-yl)methoxy]-1,1′-biphenyl-4-yl}sulfonyl)-L-valine] | – | – | 6.40 | – | pIC50 (MMP-2): 6.87; pIC50 (MMP-13; MMP-13 IC50, recombinant human catalytic domain of MMP-13): 8.85
CC(C)[C@H](NS(=O)(=O)c1ccc(-c2ccc(NC(=O)c3cc4ccccc4o3)cc2)cc1)C(=O)O [Example 2, L-2-{4′-[(Benzofuran-2-carbonyl)-amino]-biphenyl-4-sulfonylamino}-3-methyl-butyric acid] | 8.19 | – | – | – | pIC50 (MMP-9): 5.96; pIC50 (MMP-14): 5.66; pIC50 (MMP-1): < 5.46
CC(C)[C@@H](NS(=O)(=O)c1ccc(-c2ccc(NC(=O)c3ccco3)cc2)cc1)C(=O)O [Example 172, (R)-2-{4′-[(Furan-2-carbonyl)-amino]-biphenyl-4-sulfonylamino}-3-methyl-butyric acid] | 8.16 | 7.54 | 4.37 | 5.05 | pIC50 (MMP-1): 4.73
CC(C)C(NS(=O)(=O)c1ccc(-c2ccc(NS(=O)(=O)c3cccs3)cc2)cc1)C(=O)O (stereo in doubt) [Example 171, (R)-3-Methyl-2-[4′-(thiophene-2-sulfonylamino)-biphenyl-4-sulfonylamino]-butyric acid] | – | 5.96 | – | – | inhibition at 150 µM (Aggrecanase-1; read-out: AGG-1 % inhibition at a concentration): 60%
